Experimental data as given in patent EP4790063A1, “PEPTIDE HAVING ACTIVITY FOR […] OF MARINE FOULING” (National University Corporation Hokkaido University, priority 2023, dated 2025).
Non-standard residues stand in square brackets, D forms with d. Residues, ends and D or L forms follow the SMILES beside them. ξ: configuration not given here. *: point of attachment. ξβ3hL = CC(C)CC(N)CC(=O)O; Boc = CC(C)(C)OC(=O)*; ξβ3hA = CC(N)CC(=O)O; OBn = c1ccc(CO*)cc1; GABA = NCCCC(=O)O; βAla = NCCC(=O)O

Legend:
[1] = tested on: cypris larvae of Striped Barnacle; assay: Evaluation of antifouling activities and toxicity against the cypris larvae of Striped Barnacle (24-well plate, adhesion and mortality after 48 h); format: in vivo, Amphibalanus amphitrite
Method: After solutions of about 2 mL of the test compounds (tripeptides 2 to 10 and dipeptide 11) in ethanol were dispensed into each well of the 24-well polystyrene multi-well plate (3.2 mL/well, well diameter 15.5 mm, well height 17.6 mm, manufactured by Corning), the multi-well plate was air-dried to evaporate the ethanol.
The test compounds were aliquoted to achieve final concentrations of 0.03, 0.1, 0.3, 1, 3, and 10 µg/mL.
Subsequently, six individuals of the cypris larvae of Striped Barnacle (hereinafter simply referred to as "barnacle larvae") were transplanted into each well along with 2 mL of pre-filtered natural seawater. The multi-well plate was left standing in an incubator at 25°C, and the barnacle larvae were allowed to grow for two days at 25°C.
In the above procedure, a test for the control group was conducted by dispensing an ethanol solution without any test compound. The natural seawater used in the above test was prepared by diluting the natural seawater collected from the coastal area near Onjuku, Chiba Prefecture (salt concentration: 36 g/kg) with distilled water to adjust a salt concentration of 32 g/kg.
In the test group, the control group, and the comparison group, the tests were conducted in four times (four wells) for one concentration of each test compounds.
Forty-eight hours after the test started, the number of adhered individuals and the number of dead individuals of the barnacle larvae in each well were counted under a stereomicroscope. The adhesion rate (%) and mortality rate (%) of the barnacle larvae in each well were calculated, respectively. […] Similarly, for each test compound, a dose-mortality response curve was created to determine the half-maximal lethal concentration (48h LC50) that causes 50% mortality in the barnacle larvae. As a reference, the value of Boc-3 obtained from non-Patent literature 8 is also described.
In particular, the lower the settlement rate, the stronger the antifouling effect.

[2] = tested on: juvenile shellfish of Mediterranean mussel; assay: Evaluation of the antifouling activity and toxicity against the juvenile shellfish of Mediterranean mussel (coated glass beaker, 3 days); format: in vivo, Mytilus galloprovincialis; details: for bottom surface-adhered individuals % / bottom surface-crawling individuals % / overturned individuals or closed shell individuals (unadhered) % / wall surface-adhered individuals % / number of byssal threads on the bottom surface / bottom surface-adhered individuals No. / bottom surface-crawling individuals No. / overturned individuals or closed shell individuals (unadhered) No. / wall surface-adhered individuals No.: three days; for bottom surface-adhered individuals No. / bottom surface-crawling individuals No. / overturned individuals or closed shell individuals (unadhered) No. / wall surface-adhered individuals No.: twelve individuals; for antifouling effect (overall determination in words): juvenile Mediterranean mussel, 3.0 µg/mL and 10 µg/mL
Method: The sample was dissolved in ethanol to adjust to a concentration of 1 mg/mL. Thirty and 100 µL (30 and 100 µg) of the sample solutions were mixed with the solvent, and the mixtures were brought to a total volume of 500 µL. These mixtures were spread on the bottom surface of the glass beaker of the test container, and the solvent was volatilized by shaking them overnight. As a result, the samples to be evaluated were coated only on the bottom surface of the glass beaker.
A volume of 10 mL of the test seawater was added to the glass beakers of the test containers. The tests were initiated by introducing twelve test individuals into the test seawater in each beaker. The tests ended after three days, and the observation was conducted.
In Table 2, the terms "bottom surface-adhered individuals" and "wall surface-adhered individuals" refer to individuals that are adhered to the bottom surface and wall surface of the beaker, respectively; the term "bottom surface-crawling individuals" refers to individuals that move along the bottom surface without adhering; the term "overturned individuals or closed shell individuals (unadhered)" refers to individuals that are either overturned or in a closed shell without adhering to the bottom surface; and the term "number of byssal threads on the bottom surface" refers to the number of foot threads that are fixed to the bottom surface. In particular, the greater the reduction in the number of byssal threads, the stronger the effect of adhesion prevention.

[3] = Table 4 summary of results from Test Examples 1 to 3 (rounded)
[4] = Test Example 1, concentration causing 50% mortality in barnacle larvae, 48 h, 25°C, tested 0.03-10 µg/mL
[5] = Test Example 1, concentration that prevents adhesion of barnacle larvae by 50%, 48 h, 25°C, tested 0.03-10 µg/mL
[6] = 3 µg/mL (30 µg), control group 118
[7] = Test Example 3, same manner as Test Example 1

`CC(C)C(NC(=O)[C@@H]1CCCN1C(=O)[C@H](Cc1ccccc1)NC(=O)OC(C)(C)C)C(C)C(=O)OCc1ccccc1` (some centres unmarked) [tripeptide 6] was tested, and the “Antifouling activity 48h EC50” value [1, 3] was 1.66 µg/mL, the “Toxicity 48h LC50” value [1, 4] was >10 µg/mL and the “Antifouling activity 48h EC50” value [1, 5] was 1.63 µg/mL.

In the case of `CCOC(=O)CC(C)NC(=O)[C@@H]1CCCN1C(=O)[C@H](Cc1ccccc1)NC(=O)OC(C)(C)C` (stereo partly drawn) [tripeptide 10] (Boc-Phe-Pro-[ξβ3hA]-OEt), the “bottom surface-adhered individuals %” value ([2]; 3 µg/mL (30 µg)) is reported as 66.7%, the “bottom surface-crawling individuals %” value ([2]; 3 µg/mL (30 µg)) is reported as 0.0% and the “overturned individuals or closed shell individuals (unadhered) %” value ([2]; 3 µg/mL (30 µg)) is reported as 8.3%. For the same molecule, the “wall surface-adhered individuals %” value ([2]; 3 µg/mL (30 µg)) was 25.0%, the “number of byssal threads on the bottom surface” value (“number of byssal threads” below) [2, 6] was 80 and the “bottom surface-adhered individuals No.” value ([2]; 3 µg/mL (30 µg)) was 8. The “bottom surface-crawling individuals No.” value ([2]; 3 µg/mL (30 µg)) was 0, the “overturned individuals or closed shell individuals (unadhered) No.” value ([2]; 3 µg/mL (30 µg)) was 1 and the “wall surface-adhered individuals No.” value ([2]; 3 µg/mL (30 µg)) was 3. For the same molecule, the “bottom surface-adhered individuals %” value ([2]; 10 µg/mL (100 µg)) was 58.3%, the “bottom surface-crawling individuals %” value ([2]; 10 µg/mL (100 µg)) was 0.0% and the “number of byssal threads” value ([2]; 10 µg/mL (100 µg)) was 11.5. The “overturned individuals or closed shell individuals (unadhered) %” value ([2]; 10 µg/mL (100 µg)) was 8.3%, the “wall surface-adhered individuals %” value ([2]; 10 µg/mL (100 µg)) was 33.3% and the “bottom surface-adhered individuals No.” value ([2]; 10 µg/mL (100 µg)) was 7. For the same molecule, the “bottom surface-crawling individuals No.” value ([2]; 10 µg/mL (100 µg)) was 0, the “overturned individuals or closed shell individuals (unadhered) No.” value ([2]; 10 µg/mL (100 µg)) was 1 and the “wall surface-adhered individuals No.” value ([2]; 10 µg/mL (100 µg)) was 4. The “antifouling effect (overall determination in words)” value (shortened to “antifouling effect”) [2] was “ineffective”.

For `CC(CC(=O)OCc1ccccc1)NC(=O)[C@@H]1CCCN1C(=O)[C@H](Cc1ccccc1)NC(=O)OC(C)(C)C` (stereo partly drawn) [tripeptide 9] (Boc-Phe-Pro-[ξβ3hA]-OBn), the “bottom surface-adhered individuals %” value ([2]; 3 µg/mL (30 µg)) was 75.0%, the “bottom surface-crawling individuals %” value ([2]; 3 µg/mL (30 µg)) was 0.0% and the “overturned individuals or closed shell individuals (unadhered) %” value ([2]; 3 µg/mL (30 µg)) was 16.7%. For the same molecule, the “wall surface-adhered individuals %” value ([2]; 3 µg/mL (30 µg)) was 8.3%, the “number of byssal threads” value [2, 6] was 73 and the “bottom surface-adhered individuals No.” value ([2]; 3 µg/mL (30 µg)) was 9. For the same molecule, the “bottom surface-crawling individuals No.” value ([2]; 3 µg/mL (30 µg)) was 0, the “overturned individuals or closed shell individuals (unadhered) No.” value ([2]; 3 µg/mL (30 µg)) was 2 and the “wall surface-adhered individuals No.” value ([2]; 3 µg/mL (30 µg)) was 1. The “bottom surface-adhered individuals %” value ([2]; 10 µg/mL (100 µg)) was 58.3%, the “bottom surface-crawling individuals %” value ([2]; 10 µg/mL (100 µg)) was 0.0% and the “number of byssal threads” value ([2]; 10 µg/mL (100 µg)) was 34. The “overturned individuals or closed shell individuals (unadhered) %” value ([2]; 10 µg/mL (100 µg)) was 33.3%, the “wall surface-adhered individuals %” value ([2]; 10 µg/mL (100 µg)) was 8.3% and the “bottom surface-adhered individuals No.” value ([2]; 10 µg/mL (100 µg)) was 7. The “bottom surface-crawling individuals No.” value ([2]; 10 µg/mL (100 µg)) was 0, the “overturned individuals or closed shell individuals (unadhered) No.” value ([2]; 10 µg/mL (100 µg)) was 4 and the “wall surface-adhered individuals No.” value ([2]; 10 µg/mL (100 µg)) was 1. The “antifouling effect” value [2] was “effective”.

In the case of `CC(C)C(NC(=O)[C@@H]1CCCN1C(=O)OC(C)(C)C)C(C)C(=O)OCc1ccccc1` (some centres unmarked) [dipeptide 11], the “Antifouling activity 48h EC50” value [1, 3] is reported as 2.4 µg/mL, the “Toxicity 48h LC50” value [1, 4] is reported as >10 µg/mL and the “Antifouling activity 48h EC50” value [1, 5] is reported as 2.39 µg/mL.

`CC(C)(C)OC(=O)N1CCC[C@H]1C(=O)Nc1ccccc1C(=O)OCc1ccccc1` [dipeptide 13, reference compound] was tested, and the “Antifouling activity 48h EC50” value [1, 3] was 0.8 µg/mL, the “Antifouling activity 48h EC50” value [1, 7] was 0.84 µg/mL and the “Toxicity 48h LC50” value [1, 7] was >10 µg/mL.

In the case of `CC(C)CC(CC(=O)OCc1ccccc1)NC(=O)[C@@H]1CCCN1C(=O)[C@H](Cc1ccccc1)NC(=O)OC(C)(C)C` (stereo partly drawn) [tripeptide 8] (Boc-Phe-Pro-[ξβ3hL]-OBn), the “bottom surface-adhered individuals %” value ([2]; 3 µg/mL (30 µg)) is reported as 16.7%, the “bottom surface-crawling individuals %” value ([2]; 3 µg/mL (30 µg)) is reported as 0.0% and the “overturned individuals or closed shell individuals (unadhered) %” value ([2]; 3 µg/mL (30 µg)) is reported as 58.3%. The “wall surface-adhered individuals %” value ([2]; 3 µg/mL (30 µg)) was 25.0%, the “number of byssal threads” value [2, 6] was 25 and the “bottom surface-adhered individuals No.” value ([2]; 3 µg/mL (30 µg)) was 2. For the same molecule, the “bottom surface-crawling individuals No.” value ([2]; 3 µg/mL (30 µg)) was 0, the “overturned individuals or closed shell individuals (unadhered) No.” value ([2]; 3 µg/mL (30 µg)) was 7 and the “wall surface-adhered individuals No.” value ([2]; 3 µg/mL (30 µg)) was 3. The “bottom surface-adhered individuals %” value ([2]; 10 µg/mL (100 µg)) was 16.7%, the “bottom surface-crawling individuals %” value ([2]; 10 µg/mL (100 µg)) was 0.0% and the “number of byssal threads” value ([2]; 10 µg/mL (100 µg)) was 12. For the same molecule, the “overturned individuals or closed shell individuals (unadhered) %” value ([2]; 10 µg/mL (100 µg)) was 83.3%, the “wall surface-adhered individuals %” value ([2]; 10 µg/mL (100 µg)) was 0.0% and the “bottom surface-adhered individuals No.” value ([2]; 10 µg/mL (100 µg)) was 2. For the same molecule, the “bottom surface-crawling individuals No.” value ([2]; 10 µg/mL (100 µg)) was 0, the “overturned individuals or closed shell individuals (unadhered) No.” value ([2]; 10 µg/mL (100 µg)) was 10 and the “wall surface-adhered individuals No.” value ([2]; 10 µg/mL (100 µg)) was 0. The “antifouling effect” value [2] was “exhibit an antifouling effect”, the “antifouling effect” value ([2]; listed as compound 8) was “effective” and the “Antifouling activity 48h EC50” value [1, 3] was 1.1 µg/mL. The “Toxicity 48h LC50” value [1, 4] was >10 µg/mL, the “Antifouling activity 48h EC50” value [1, 5] was 1.13 µg/mL and the “antifouling activity (in words)” value ([1]; cypris larvae of Striped Barnacle, within the tested concentration range) was “effective”.

For `CCOC(=O)CCNC(=O)[C@@H]1CCCN1C(=O)[C@H](Cc1ccccc1)NC(=O)OC(C)(C)C` [tripeptide 4] (Boc-Phe-Pro-[βAla]-OEt), the “Antifouling activity 48h EC50” value [1, 3] was >10 µg/mL, the “Toxicity 48h LC50” value [1, 4] was >10 µg/mL and the “Antifouling activity 48h EC50” value [1, 5] was >10 µg/mL.

`CCOC(=O)CCCNC(=O)[C@@H]1CCCN1C(=O)[C@H](Cc1ccccc1)NC(=O)OC(C)(C)C` [tripeptide 5] (Boc-Phe-Pro-[GABA]-OEt) was tested, and the “Antifouling activity 48h EC50” value [1, 3] was >10 µg/mL, the “Toxicity 48h LC50” value [1, 4] was >10 µg/mL and the “Antifouling activity 48h EC50” value [1, 5] was >10 µg/mL.
